8 molecules from patent US20240190875A1, “SPIROINDOLINE DERIVATIVE, AND PREPARATION METHOD AND MEDICAL USE THEREOF” (CHANGCHUN GENESCIENCE PHARMACEUTICAL CO., LTD., priority 2021, published 2024) can be followed below.

Series [1] can be described thus: in vitro. Conditions: human; for Papp B→A at 2 h, 2 μM: Caco-2, pH 7.4, Mean Papp B to A.
A short description of series [2]: Subacute toxicity test in rats (14 days oral, 14 days recovery). The format is in vivo, Sprague-Dawley (SD) rats. Here is the method:
Male Sprague-Dawley (SD) rats (180-220 g) were purchased from Liaoning Changsheng Biotechnology Co., Ltd. (Liaoning, China). All animals were kept in a temperature-controlled room (22±2° C.) with a relative humidity of 55±15% and a 12/12-h light/dark period (the light was turned off at 8:00 pm), with 3 animals in each cage. Animals were adapted to the environment for 1 week after arrival, and allowed to free access to indicated feed and sterilized water, and the padding in the animal cage was changed twice a week.
The compound of the present invention was prepared in 10% HS15.
Multiple doses (30 mpk, 100 mpk and 300 mpk) of the compound of the present invention were orally administered to rats. The compound was administered once a day for consecutive 14 days. The rats were weighed twice a week. […] Compound 5 was given by oral gavage for consecutive 14 days and then recovered for 2 weeks.

A short description of series [3]: Metabolism (pharmacokinetic) test in rats, oral gavage.
Series [4] addresses human GHSR (Homo sapiens (Human), UniProt Q92847). As to the kind of experiment: Human GHSR agonist activity, FLIPR calcium fluorescence in human GHSR/CHO stable cell line. The format is cell-based. Here is the method: This method was used to determine the agonism effect of the compound of the invention on the activity of human GHSR protein expressed in human GHSR/CHO stable cell line.
Preparation of buffer: HBSS (1X):HEPES (1M)=49:1, containing 0.5% BSA.
Cells of human GHSR/CHO stable cell line were inoculated into a 384-well plate, and incubated overnight. Then, the cell plate was removed, and the medium was discarded. 20 uL buffer as slowly added to each well, and then 20 uL 2X Fluo-4 Direct™ No-wash Loading Buffer was added to each well. The cell plate was incubated in an incubator at 37° C. and 5% CO2 for 50 min, and then removed and allowed to stand at room temperature for 10 min. 30 uL buffer was added to each well in the compound plate; and a buffer plate was additionally prepared and 30 uL buffer was added to each well. Test for agonism of compound: An FLIPR instrument and running software were used. 10 uL buffer was transferred to the cell plate and the value of fluorescence signal was read. 10 uL compound was transferred to the cell plate and the value of fluorescence signal was read. An FLIPR program was used to calculate the difference between the maximum value and the minimum value from the 91st signal point to the 230th signal point. The EC50 value of the compound can be calculated by software from fluorescence values corresponding to various concentrations.

Series [5] has as its system growth hormone (GH). As to the kind of experiment: In-vivo pharmacodynamic test in rats: plasma GH level by ELISA after oral administration. The settings on record: for GH concentration in rats: male SD rats, oral, 4 mpk in 10% HS15. Also noted: species or system Sprague-Dawley (SD) rats. (In an ELISA, binding on a coated surface is turned into a signal by an enzyme label.)

The test system of series [6] is Caco-2 cells. As to the kind of experiment: Caco-2 cell transport assay (bidirectional). Conditions: Table 3-1, Caco-2, 2.00 μM.
Series [7] can be described thus: Caco-2 cell transport assay (bidirectional). The settings on record: human, Caco-2, 2.00 μM; for efflux ratio at 2 h, 2 μM: Caco-2, pH 7.4, Efflux Ratio; for Papp A→B at 2 h, 2 μM: Caco-2, pH 7.4, Mean Papp A to B; for Papp A→B at 2 h, 2 μM / Papp B→A at 2 h, 2 μM: pH 7.40; for Papp B→A at 2 h, 2 μM: Caco-2, pH 7.4, Mean Papp B to A. On the technique in general: Caco-2 monolayers are a common model of the intestinal barrier.

Series [8] concerns Caco-2 cells. Conditions: human, Caco-2, 2 h, 2 μM, pH 7.4.
The mark [9] stands for this setting: oral gavage 30, 100, 300 mpk once a day for 14 days, 2 weeks recovery.
Setting [10] is: rats, single oral gavage, 1 mg/mL, 3 mL/kg, active ingredient ibutamoren measured in whole blood.
Where [11] appears, read: time point 0 min (basic sampling before dosing).

As a reminder, the efflux ratio is the permeability from basolateral to apical divided by that in the opposite direction, in the common usage. As usually defined, the Papp A→B is the apparent permeability from the apical to the basolateral side of a cell layer. As a reminder, the Papp B→A is the apparent permeability from the basolateral to the apical side of a cell layer. In general, Cmax refers to the highest concentration seen after dosing. What is called Tmax is the time from dosing to the highest level. A word on the EC50: it is the concentration giving half of the maximal effect. One may read the AUC(0-inf) as the area under the concentration-time curve extrapolated to infinity. Read a high AUC(0-inf) as high exposure. By AUC(0-t) is commonly meant the area under the concentration-time curve up to a stated or last time point. Broadly, the half-life is the time needed for the level to fall by half in the phase considered. A high value points to slow decline.

Each structure is given as a SMILES string. Read-outs that look alike come from different tables or passages of the source.

Sequence of human GHSR (Q92847 whole entry): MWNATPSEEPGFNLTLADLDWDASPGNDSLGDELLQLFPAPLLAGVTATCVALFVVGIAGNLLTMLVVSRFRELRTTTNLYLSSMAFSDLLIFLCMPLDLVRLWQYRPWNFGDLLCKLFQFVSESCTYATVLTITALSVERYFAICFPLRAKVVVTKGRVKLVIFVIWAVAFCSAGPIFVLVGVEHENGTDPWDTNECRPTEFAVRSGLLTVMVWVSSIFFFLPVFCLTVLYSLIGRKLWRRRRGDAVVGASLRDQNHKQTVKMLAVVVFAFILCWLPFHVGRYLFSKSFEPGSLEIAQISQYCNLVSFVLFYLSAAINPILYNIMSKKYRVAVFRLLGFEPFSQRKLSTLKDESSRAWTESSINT

Turning to `CC(=O)/C=C(/C)NC(C)(C)C(=O)N[C@H](COCc1ccccc1)C(=O)N1CCC2(CC1)CN(S(C)(=O)=O)c1ccccc12` [Compound 19, (R,Z)-N-(3-(benzoxy)-1-(1-(methylsulfonyl)spiro[indol-3,4′-piperidin]-1′-yl)-1-oxopropan-2-yl)-2-methyl-2-((4-oxopen-2-en-2-yl)amino)propionamide], the efflux ratio at 2 h, 2 μM in series [1] (Caco-2, pH 7.4, Efflux Ratio) is 189. In series [1] (Caco-2, pH 7.4, Mean Papp A to B), this molecule gave a Papp A→B at 2 h, 2 μM of 0.198 ×10⁻⁶ cm/s. In addition, the Papp B→A at 2 h, 2 μM in series [1] was determined as 37.3 ×10⁻⁶ cm/s.
As to `CC(OC(=O)NC(C)(C)C(=O)N[C@H](COCc1ccccc1)C(=O)N1CCC2(CC1)CN(S(C)(=O)=O)c1ccccc12)OC(=O)C(C)C` (stereo partly drawn) [Compound 5, (4R)-7,7-dimethyl-4-(1-(methylsulfonyl)spiro[indol-3,4′-piperidin]-1′-carbonyl)-6,9-dioxo-1-phenyl-2,10-dioxa-5,8-diazadodecan-11-yl Isobutyrate], the “Subacute toxicity overall finding” value in series [2] (dosage 80 times) is reported as “no obvious abnormality”. Moreover, in series [2] (setting [9]), the Anatomic findings result is “no anatomic abnormality”; the “Food intake and daily behavior” value is on record as “no significant abnormality”. Also, the Weight change entry in series [2] (oral gavage 30, 100, 300 mpk once a day for 14 days, 2 weeks recovery (FIG. 1)) is listed as “no significant difference”. In series [3] (rats, oral gavage), the “Cmax and AUC compared with positive control ibutamoren (in words)” value is listed as “obviously superior”. In series [3] (setting [10]), this molecule had an AUCINF-obs of 23.31 ± 10.81 ng·h/mL, an AUClast of 21.61 ± 9.52 ng·h/mL, a Cmax of 18.50 ± 13.60 ng/mL and a T1/2 of 2.43 ± 0.13 h. Also, in series [3] (setting [10]), the Tmax stood at 0.44 ± 0.49 h. Moreover, the EC50 in series [4] (human GHSR/CHO stable cell line, Fluo-4 FLIPR) amounted to 14.6 nM. The “GH level in the circulation of rats (in words)” value in series [5] (15 minutes after administration, male rats) is “significantly increased”. In addition, the “GH concentration in rats” value in series [5] (setting [11]) came to 12.23 ± 10.44 ng/mL. The “GH concentration in rats” value in series [5] (time point 15 min) is listed as 51.12 ± 33.98 ng/mL. For the same molecule, the “GH concentration in rats” value in series [5] (time point 30 min) came out at 19.07 ± 7.17 ng/mL. The “GH concentration in rats” value in series [5] (time point 60 min) worked out at 11.76 ± 4.14 ng/mL. The “Efflux Ratio” value in series [6] amounted to 170. Further, in series [6] (2 hrs, pH 7.40), the “Mean Papp A to B” value is 0.0518 10^−6 cm/s and the “Mean Papp B to A” value is 8.80 10^−6 cm/s.
Turning to `C[C@H]1O[C@@H](O[C@H]2[C@@H](O)C[C@H](O[C@H]3[C@@H](O)C[C@H](O[C@H]4CC[C@@]5(C)[C@H](CC[C@@H]6[C@@H]5C[C@@H](O)[C@]5(C)[C@@H](C7=CC(=O)OC7)CC[C@]65O)C4)O[C@@H]3C)O[C@@H]2C)C[C@H](O)[C@@H]1O` [Digoxin], in series [7] (Table 3-1), the efflux ratio at 2 h, 2 μM was 523; the Papp A→B at 2 h, 2 μM was determined as 0.0229 ×10⁻⁶ cm/s; the Papp B→A at 2 h, 2 μM was 12 ×10⁻⁶ cm/s. In series [7] (Table 3-2), the efflux ratio at 2 h, 2 μM was determined as 300; the Papp A→B at 2 h, 2 μM stood at 0.0476 ×10⁻⁶ cm/s; the Papp B→A at 2 h, 2 μM was 14.3 ×10⁻⁶ cm/s.
In turn, `CC(C)(N)C(=O)N[C@H](COCc1ccccc1)C(=O)N1CCC2(CC1)CN(S(C)(=O)=O)c1ccccc12` [Ibutamoren, reference compound] yielded a Papp B→A at 2 h, 2 μM in series [1] of 19.5 ×10⁻⁶ cm/s. In series [3] (rat, whole blood, po, 3 mg/kg), the AUC(0-inf) is 14.3 ± 11 ng·h/mL, the AUC(0-t) worked out at 6.97 ± 3.27 ng·h/mL, the concentration peaked (Cmax) at 3.49 ± 2.81 ng/mL and the Tmax was 1.06 ± 1.68 h. Further, in series [3] (rat, whole blood, po, 3 mg/kg), the half-life was 9.61 ± 12.1 h. In addition, the “Mean Papp B to A” value in series [8] is reported as 24.1 10^−6 cm/s. For the same molecule, the “GH concentration in rats” value in series [5] (setting [11]) was found to be 12.22 ± 9.90 ng/mL.
On to `CCC(C)C(=O)OC(C)OC(=O)NC(C)(C)C(=O)N[C@H](COCc1ccccc1)C(=O)N1CCC2(CC1)CN(S(C)(=O)=O)c1ccccc12` (stereo partly drawn) [Compound 12, (4R)-7,7-dimethyl-4-(1-(methylsulfonyl)spiro[indol-3,4′-piperidin]-1′-carbonyl)-6,9-dioxo-1-phenyl-2,10-dioxa-5,8-diazadodecan-11-yl 2-methylbutyrate], for which, in series [4], the EC50 was determined as 35.9 nM.
As for `CCOP(=O)(OCC)OCOC(=O)NC(C)(C)C(=O)N[C@H](COCc1ccccc1)C(=O)N1CCC2(CC1)CN(S(C)(=O)=O)c1ccccc12` [Compound 10, ((Diethoxyphosphoryl)oxy)methyl (R)-(1-((3-(benzoxy)-1-(1-(methylsulfonyl)spiro[indol-3,4′-piperidin]-1′-yl)-1-oxopropan-2-yl)amino)-2-methyl-1-oxopropan-2-yl)carbamate], the concentration for a half-maximal effect (EC50) in series [4] came to 152 nM.
With `CC(OC(=O)NC(C)(C)C(=O)N[C@H](COCc1ccccc1)C(=O)N1CCC2(CC1)CN(S(C)(=O)=O)c1ccccc12)OC(=O)C(C)(C)C` (stereo partly drawn) [Compound 20, (4R)-7,7-dimethyl-4-(1-(methylsulfonyl)spiro[indolin-3,4′-piperidin]-1′-carbonyl)-6,9-dioxo-1-phenyl-2,10-dioxa-5,8-diazadodecan-11-yl Pivalate], the EC50 in series [4] came out at 37.7 nM.
For `CC(=O)OC(C)OC(=O)NC(C)(C)C(=O)N[C@H](COCc1ccccc1)C(=O)N1CCC2(CC1)CN(S(C)(=O)=O)c1ccccc12` (stereo partly drawn) [Compound 14, (4R)-7,7-dimethyl-4-(1-(methylsulfonyl)spiro[indol-3,4′-piperidin]-1′-carbonyl)-6,9-dioxo-1-phenyl-2,10-dioxa-5,8-diazadodecan-11-yl Acetate], the EC50 in series [4] stood at 47.2 nM. Further, in series [5] (rat, in vivo), the “Effect on GH level compared with ibutamoren (in words)” value is “significantly better than that of ibutamoren” and the “GH level in the circulation of rats (in words)” value is on record as “significantly increased”.
